Patent publication US20070238661A1, “Substance P treatment for hepatitis C” (priority 2006, published 2007)

How the values were obtained:
Hepatitis C virus = conditions: substance P aerosol combined with standard drug treatment of ribavirin and interferon alpha
[1] = system: A/Hong Kong 8/68 influenza virus; design: species or system C57BL/6 mice; conditions: mouse, in vivo
lung protein alterations = test: Acute formalin exposure lung injury model, lung protein analysis by two-dimensional gel electrophoresis; assay type: in vivo, Fischer 344 rats
Description: In a third system, we sought to determine if Sar^9, Met (O2)^11-substance P-treated Fischer 344 rats who were exposed to 67 mg/m^3 […] aerosolize formalin for 1.5 minutes would attenuate lung protein alterations. At approximately 42 minutes post-formalin or air exposure, rat lungs were removed for protein analysis. […] Among these 71 proteins were fibrinogen-related proteins.

CSCC[C@H](NC(=O)[C@H](CC(C)C)NC(=O)CNC(=O)[C@H](Cc1ccccc1)NC(=O)[C@H](Cc1ccccc1)NC(=O)[C@H](CCC(N)=O)NC(=O)[C@H](CCC(N)=O)NC(=O)[C@@H]1CCCN1C(=O)[C@H](CCCCN)NC(=O)[C@@H]1CCCN1C(=O)[C@@H](N)CCCN=C(N)N)C(N)=O [substance P]
deleterious effects of ribavirin and interferon alpha (loss of appetite, nausea, vomiting, weight loss) (Hepatitis C virus): eliminated

Sar^9, Met (O2)^11-substance P
development of influenza symptoms (decreased body mass, fever, dehydration, nasal discharge) [1]: did not develop influenza symptoms | leukotriene B4 levels relative to A/Hong Kong 8/68 virus only mice [1]: 33% | lung cell counts after broncho-alveolar lavage [1]: normal lung cell counts | signs of lung injury (electron micrographs) [1]: did not observe any signs of lung injury | number of lung proteins whose formalin-mediated abundance changes were attenuated (lung protein alterations; 67 mg/m^3 aerosolized formalin for 1.5 minutes, lungs removed about 42 minutes post-exposure, includes fibrinogen-related proteins): 71 proteins | lung fibrinogen concentrations after acute formalin exposure (proteomic analyses) (lung protein alterations; acute lung injury model): preserve fibrinogen concentrations
